Values of other authors as cited in patent publication US20020090664A1, “Methods for measuring stress in mammals” (priority 2000, published 2002).

Test system: salivary cortisol
Settings: adults exposed to the fragrance before the stressful event, compared with challenge without fragrance; Tanizawa, JP Patent No.11-19076

## Cc1c[nH]c2ccccc12 [skatole]
  effect of fragrance on stress induced release of cortisol (salivary cortisol levels): opposite effect
